US20110214196A1, “DEVELOPMENT OF HERBICIDE-RESISTANT GRASS SPECIES” (University of Georgia Research Foundation, priority 2008, published 2011)

Tests used:
bermudagrass = experiment: Controlling weedy species in a plot of bermudagrass and sethoxydim-resistant seashore paspalum; assay type: in vivo
Method: (§1) A plot containing both bermudagrass and sethoxydim-resistant seashore paspalum is treated with 150 g a.i. ha^−1 sethoxydim once a week over a period of three months. Over the three month treatment period, it is observed that the bermudagrass slowly dies out while the sethoxydim-resistant paspalum continues to thrive, leaving the plot populated with above 80% sethoxydim-resistant paspalum.
as §1, with “treated with both 150 g” for “treated with 150 g”, “ha^−1 sethoxydim and 150 g a.i. ha^−1 fenoxaprop once a” for “ha^−1 sethoxydim once a”

[1] = tested on: Large crabgrass (Digitaria sanguinalis) F2; experiment: Large crabgrass dose response study, F2 from self-pollinated surviving plants; assay type: in vivo
Method: Plants were grown from seed collected from a turfgrass sod farm near where sethoxydim had been continuously used for twelve years. Seeds were planted in 250 mL styrofoam cups with a potting mixture of pure sand in a glasshouse with supplemental lighting (300 uE/m2/s) and 30/25 temperature. Plants were watered once daily and fertilized once a week. Large crabgrass plants were treated with herbicides when 3-5 cm tall in a dose response study. Four herbicides (sethoxydim, fluazifop, clethodim, and pinoxaden) were applied at […]. Plant injury was observed 7 and 14 DAT. The experimental design consisted of a randomized complete block design with three replications. The experiment was replicated in time.
In response to all four herbicides, the plants initially illutrated typical ACCase symptomology, but recovered in 7-14 days after treatment (DAT). […] Seeds from self-pollinated surviving large crabgrass plants were collected and analyzed using the same dose response design as state before. […] The ED50 was approximately 10 times greater for the resistant (R) population than that for the wild type (S) population.

SMILES: CCC/C(=N\OCC)C1=C(O)CC(CC(C)SCC)CC1=O (stereo not drawn) [sethoxydim, 2-[1-(ethoxyimino)-butyl]-5-[2-(ethylthio)propyl]-3-hydroxy-2-cylohexen-1-one]
- plot populated with sethoxydim-resistant paspalum; bermudagrass slowly dies out (bermudagrass; 150 g a.i. ha^−1 sethoxydim and 150 g a.i. ha^−1 fenoxaprop once a week over three months): above 80%
- plot populated with sethoxydim-resistant paspalum; bermudagrass slowly dies out (bermudagrass; 150 g a.i. ha^−1 sethoxydim once a week over three months): above 80%
- effective dose required to cause 50% injury (ED50) [1]: 179±4 g ai/ha
